System: Clostridium difficile
Assay: Agar dilution MIC of vancomycin preparations (Sigma, Cutis), diluent, Na benzoate and Na citrate
Type: cell-based
Settings: for MIC, AV (average): average of triplicate; for MIC, VAN-1: replicate 1; for MIC, VAN-2: replicate 2; for MIC, VAN-3: replicate 3
Protocol: Introduction: The purpose of the study was to compare the MICs obtained with the formulation of vancomycin HCL of the invention (Cutis) to formulations obtained using a vancomycin HCL reference standard powder obtained from Sigma. The Example also involves the analysis of a solution or diluent to determine if it has antimicrobial activity at the concentrations present in the agar dilution test.
The C. difficile were tested by agar dilution according to the procedures in the Clinical and Laboratory Standards Institute. 2012. Methods for antimicrobial susceptibility testing of anaerobic bacteria; approved standard-seventh edition.
Other anaerobic organisms included clinical isolates of Bifidobacterium adolescentis and Bacteroides fragilis. Clostridium difficile ATCC 700057 was included as a quality control strain.
The C. difficile isolates were recovered from patients with CDI during the past two years and stored at −70° C. in 20% skim milk. Ribotyping was performed by another reference laboratory. The strains were taken from the freezer and subcultured at least twice to ensure purity and good growth.
On the day of testing, they were suspended in Brucella broth to the turbidity of the 0.5 McFarland standard for testing.
Stock solution of the Sigma vancomycin was prepared in water and stored at −70° C. On the day of testing, it was thawed and further diluted in water to obtain the desired range of 16-0.125 μg/ml. The Cutis vancomycin (25 mg/ml) was reconstituted on the day of testing and further diluted for a final range of 16-0.125 μg/ml in the test. The antimicrobials were added to molten Brucella agar supplemented with vitamin K and hemin to prepare the plates. Drug-free growth controls were included for testing before and after each set of plates. All testing was done in triplicate.
The organisms were pipetted into the wells of the Steers replicator head and applied to the plates with the multi-pronged replicator. The final concentration of organisms was ˜10^5 CFU/spot.
The plates were incubated in the anaerobic chamber incubator for 44 h and examined for growth.
The Cutis diluent comprises: water, about 0.12% (w/v) citric acid (anhydrous), 0.2% (w/v) sucralose, about 0.05% (w/v) artificial grape flavor, 0.1% (w/v) sodium benzoate, about 0.0002% (w/v) D&C Yellow No. 10 and about 0.000038% (w/v) FD&C Red No. 40.

[1] = ATCC 700057 quality control strain, first set (r41)
[2] = ATCC 700057 quality control strain, second set (r74)

**Q.** What does the source list for `CN[C@H](CC(C)C)C(=O)N[C@H]1C(=O)N[C@@H](CC(N)=O)C(=O)N[C@H]2C(=O)N[C@H]3C(=O)N[C@H](C(=O)N[C@H](C(=O)O)c4cc(O)cc(O)c4-c4cc3ccc4O)[C@H](O)c3ccc(c(Cl)c3)Oc3cc2cc(c3O[C@@H]2O[C@H](CO)[C@@H](O)[C@H](O)[C@H]2O[C@H]2C[C@](C)(N)[C@H](O)[C@H](C)O2)Oc2ccc(cc2Cl)[C@H]1O.Cl` [Sigma]?
**A.** MIC, AV (average) [1]: 2 µg/mL; MIC, VAN-1 [1]: 2 µg/mL; MIC, VAN-2 [1]: 2 µg/mL; MIC, VAN-3 [1]: 2 µg/mL; MIC, AV (average) [2]: 2 µg/mL; MIC, VAN-1 [2]: 2 µg/mL; MIC, VAN-2 [2]: 2 µg/mL; MIC, VAN-3 [2]: 2 µg/mL; MIC, AV (average) (RMA 24504, ribotype 027): 2 µg/mL; MIC, VAN-1 (RMA 24504, ribotype 027): 2 µg/mL; MIC, VAN-2 (RMA 24504, ribotype 027): 2 µg/mL; MIC, VAN-3 (RMA 24504, ribotype 027): 2 µg/mL; MIC, AV (average) (RMA 24510, ribotype 027): 1.7 µg/mL; MIC, VAN-1 (RMA 24510, ribotype 027): 2 µg/mL; MIC, VAN-2 (RMA 24510, ribotype 027): 2 µg/mL; MIC, VAN-3 (RMA 24510, ribotype 027): 1 µg/mL; MIC, AV (average) (RMA 24519, ribotype 027): 1.7 µg/mL; MIC, VAN-1 (RMA 24519, ribotype 027): 2 µg/mL; MIC, VAN-2 (RMA 24519, ribotype 027): 2 µg/mL; MIC, VAN-3 (RMA 24519, ribotype 027): 1 µg/mL; MIC, AV (average) (RMA 24527, ribotype 014): 2 µg/mL; MIC, VAN-1 (RMA 24527, ribotype 014): 2 µg/mL; MIC, VAN-2 (RMA 24527, ribotype 014): 2 µg/mL; MIC, VAN-3 (RMA 24527, ribotype 014): 2 µg/mL; MIC, AV (average) (RMA 24529, ribotype 014): 2 µg/mL; MIC, VAN-1 (RMA 24529, ribotype 014): 2 µg/mL; MIC, VAN-2 (RMA 24529, ribotype 014): 2 µg/mL; MIC, VAN-3 (RMA 24529, ribotype 014): 2 µg/mL; MIC, AV (average) (RMA 24541, ribotype 020): 1.7 µg/mL; MIC, VAN-1 (RMA 24541, ribotype 020): 1 µg/mL; MIC, VAN-2 (RMA 24541, ribotype 020): 2 µg/mL; MIC, VAN-3 (RMA 24541, ribotype 020): 2 µg/mL; MIC, AV (average) (RMA 24543, ribotype 020): 1.3 µg/mL; MIC, VAN-1 (RMA 24543, ribotype 020): 1 µg/mL; MIC, VAN-2 (RMA 24543, ribotype 020): 1 µg/mL; MIC, VAN-3 (RMA 24543, ribotype 020): 2 µg/mL; MIC, AV (average) (RMA 24547, ribotype 014): 1 µg/mL; MIC, VAN-1 (RMA 24547, ribotype 014): 1 µg/mL; MIC, VAN-2 (RMA 24547, ribotype 014): 1 µg/mL; MIC, VAN-3 (RMA 24547, ribotype 014): 1 µg/mL; MIC, AV (average) (RMA 24560, ribotype 078): 1.7 µg/mL; MIC, VAN-1 (RMA 24560, ribotype 078): 2 µg/mL; MIC, VAN-2 (RMA 24560, ribotype 078): 2 µg/mL; MIC, VAN-3 (RMA 24560, ribotype 078): 1 µg/mL; MIC, AV (average) (RMA 24561, ribotype 078): 2 µg/mL; MIC, VAN-1 (RMA 24561, ribotype 078): 2 µg/mL; MIC, VAN-2 (RMA 24561, ribotype 078): 2 µg/mL; MIC, VAN-3 (RMA 24561, ribotype 078): 2 µg/mL; MIC, AV (average) (RMA 24567, ribotype 020): 2 µg/mL; MIC, VAN-1 (RMA 24567, ribotype 020): 2 µg/mL; MIC, VAN-2 (RMA 24567, ribotype 020): 2 µg/mL; MIC, VAN-3 (RMA 24567, ribotype 020): 2 µg/mL; MIC, AV (average) (RMA 24575, ribotype 078): 2.7 µg/mL; MIC, VAN-1 (RMA 24575, ribotype 078): 2 µg/mL; MIC, VAN-2 (RMA 24575, ribotype 078): 4 µg/mL; MIC, VAN-3 (RMA 24575, ribotype 078): 2 µg/mL; MIC, AV (average) (RMA 24594, ribotype 106): 3.3 µg/mL; MIC, VAN-1 (RMA 24594, ribotype 106): 4 µg/mL; MIC, VAN-2 (RMA 24594, ribotype 106): 2 µg/mL; MIC, VAN-3 (RMA 24594, ribotype 106): 4 µg/mL; MIC, AV (average) (RMA 24601, ribotype 106): 2 µg/mL; MIC, VAN-1 (RMA 24601, ribotype 106): 2 µg/mL; MIC, VAN-2 (RMA 24601, ribotype 106): 2 µg/mL; MIC, VAN-3 (RMA 24601, ribotype 106): 2 µg/mL; MIC, AV (average) (RMA 24605, ribotype 002): 2 µg/mL; MIC, VAN-1 (RMA 24605, ribotype 002): 2 µg/mL; MIC, VAN-2 (RMA 24605, ribotype 002): 2 µg/mL; MIC, VAN-3 (RMA 24605, ribotype 002): 2 µg/mL; MIC, AV (average) (RMA 24607, ribotype 106): 2 µg/mL; MIC, VAN-1 (RMA 24607, ribotype 106): 2 µg/mL; MIC, VAN-2 (RMA 24607, ribotype 106): 2 µg/mL; MIC, VAN-3 (RMA 24607, ribotype 106): 2 µg/mL; MIC, AV (average) (RMA 24608, ribotype 002): 2 µg/mL; MIC, VAN-1 (RMA 24608, ribotype 002): 2 µg/mL; MIC, VAN-2 (RMA 24608, ribotype 002): 2 µg/mL; MIC, VAN-3 (RMA 24608, ribotype 002): 2 µg/mL; MIC, AV (average) (RMA 24615, ribotype 005): 2 µg/mL; MIC, VAN-1 (RMA 24615, ribotype 005): 2 µg/mL; MIC, VAN-2 (RMA 24615, ribotype 005): 2 µg/mL; MIC, VAN-3 (RMA 24615, ribotype 005): 2 µg/mL; MIC, AV (average) (RMA 24628, ribotype 012): 2 µg/mL; MIC, VAN-1 (RMA 24628, ribotype 012): 2 µg/mL; MIC, VAN-2 (RMA 24628, ribotype 012): 2 µg/mL; MIC, VAN-3 (RMA 24628, ribotype 012): 2 µg/mL; MIC, AV (average) (RMA 24641, ribotype 001/072): 2 µg/mL; MIC, VAN-1 (RMA 24641, ribotype 001/072): 2 µg/mL; MIC, VAN-2 (RMA 24641, ribotype 001/072): 2 µg/mL; MIC, VAN-3 (RMA 24641, ribotype 001/072): 2 µg/mL; MIC, AV (average) (RMA 24643, ribotype 001/072): 2 µg/mL; MIC, VAN-1 (RMA 24643, ribotype 001/072): 2 µg/mL; MIC, VAN-2 (RMA 24643, ribotype 001/072): 2 µg/mL; MIC, VAN-3 (RMA 24643, ribotype 001/072): 2 µg/mL; MIC, AV (average) (RMA 24646, ribotype 001/072): 2 µg/mL; MIC, VAN-1 (RMA 24646, ribotype 001/072): 2 µg/mL; MIC, VAN-2 (RMA 24646, ribotype 001/072): 2 µg/mL; MIC, VAN-3 (RMA 24646, ribotype 001/072): 2 µg/mL; MIC, AV (average) (RMA 24655, ribotype 005): 2 µg/mL; MIC, VAN-1 (RMA 24655, ribotype 005): 2 µg/mL; MIC, VAN-2 (RMA 24655, ribotype 005): 2 µg/mL; MIC, VAN-3 (RMA 24655, ribotype 005): 2 µg/mL; MIC, AV (average) (RMA 24678, ribotype 012): 4 µg/mL; MIC, VAN-1 (RMA 24678, ribotype 012): 4 µg/mL; MIC, VAN-2 (RMA 24678, ribotype 012): 4 µg/mL; MIC, VAN-3 (RMA 24678, ribotype 012): 4 µg/mL; MIC, AV (average) (RMA 24683, ribotype 027): 2 µg/mL; MIC, VAN-1 (RMA 24683, ribotype 027): 2 µg/mL; MIC, VAN-2 (RMA 24683, ribotype 027): 2 µg/mL; MIC, VAN-3 (RMA 24683, ribotype 027): 2 µg/mL

Reference: patent publication US20210038515A1 (Azurity Pharmaceuticals, Inc., priority 2014, published 2021)
